Results as given in PubChem BioAssay AID246 (DTP/NCI, 2004).
“And” between values parts separate entries of the source, which are not always exact repeats. Equal entries are not always repeated. Inconclusive results and toxic doses are left out.

Test system: BDF1 mice, P1081 chloroleukemia ip, survival T/C
Assay: NCI In Vivo Anticancer Drug Screen. Data for tumor model P1081 Chloroleukemia (intraperitoneal) in B6D2F1 (BDF1) mice
Conditions: endpoint: mean survival time, higher = longer survival
Description: The antitumor activity of compounds was measured in mice bearing transplantable tumors. Survival or tumor size were measured and the results are expressed as the measurement made in the treated group (T) divided by the measurement made in the vehicle treated control group (C). The tumor model used in this assay is P1081 Chloroleukemia (intraperitoneal) in B6D2F1 (BDF1) mice

[1] = dose: 3.9 mg/kg/injection, schedule: Q01DX Z (ip), vehicle: carboxymethylcellulose (CMC)
[2] = dose: 37.5 mg/kg/injection, schedule: Q01DX010 (ip), vehicle: saline
[3] = dose: 150.0 mg/kg/injection, schedule: Q01DX010 (ip), vehicle: saline
[4] = dose: 1.25 mg/kg/injection, schedule: Q01DX Z (ip), vehicle: carboxymethylcellulose (CMC)
[5] = dose: 16.0 mg/kg/injection, schedule: Q01DX010 (ip), vehicle: saline
[6] = dose: 32.0 mg/kg/injection, schedule: Q01DX010 (ip), vehicle: saline
[7] = dose: 64.0 mg/kg/injection, schedule: Q01DX010 (ip), vehicle: saline
[8] = dose: 8.0 mg/kg/injection, schedule: Q01DX010 (ip), vehicle: saline

Structure (SMILES): O=C(Nc1ccc(C2=NCCCN2)cc1)c1ccc(NC(=O)c2ccc(C3=NCCCN3)cc2)cc1
- T/C (dose: 1.95 mg/kg/injection, schedule: Q01DX Z (ip), vehicle: water): 123 % of control
- T/C [1]: 157 % of control
- T/C (dose: 3.9 mg/kg/injection, schedule: Q01DX Z (ip), vehicle: water): 193 % of control
- T/C (dose: 7.8 mg/kg/injection, schedule: Q01DX Z (ip), vehicle: water): 202 % of control
- T/C (dose: 15.6 mg/kg/injection, schedule: Q01DX Z (ip), vehicle: carboxymethylcellulose (CMC)): 92 % of control
- T/C (dose: 15.6 mg/kg/injection, schedule: Q01DX Z (ip), vehicle: water): 86 % of control

Structure (SMILES): CN(C)c1nc(N(C)C)nc(N(C)C)n1
- T/C (dose: 16.0 mg/kg/injection, schedule: Q01DX Z (ip), vehicle: carboxymethylcellulose (CMC)): 95 % of control
- T/C (dose: 18.8 mg/kg/injection, schedule: Q01DX010 (ip), vehicle: saline): 116 % of control and 100 % of control
- T/C (dose: 31.0 mg/kg/injection, schedule: Q01DX Z (ip), vehicle: carboxymethylcellulose (CMC)): 92 % of control
- T/C [2]: 116 % of control and 100 % of control
- T/C (dose: 62.5 mg/kg/injection, schedule: Q01DX Z (ip), vehicle: carboxymethylcellulose (CMC)): 88 % of control
- T/C (dose: 63.0 mg/kg/injection, schedule: Q01DX Z (ip), vehicle: carboxymethylcellulose (CMC)): 123 % of control
- T/C (dose: 75.0 mg/kg/injection, schedule: Q01DX010 (ip), vehicle: saline): 116 % of control and 105 % of control
- T/C [3]: 111 % of control and 100 % of control

Structure (SMILES): NC(Cc1ccc(N(CCCl)CCCl)cc1)C(=O)O (centres undefined)
- T/C [4]: 115 % of control
- T/C (dose: 2.5 mg/kg/injection, schedule: Q01DX010 (ip), vehicle: saline): 150 % of control and 333 % of control
- T/C (dose: 5.0 mg/kg/injection, schedule: Q01DX010 (ip), vehicle: saline): 327 % of control
- T/C (dose: 5.0 mg/kg/injection, schedule: Q01DX Z (ip), vehicle: carboxymethylcellulose (CMC)): 189 % of control
- T/C (dose: 10.0 mg/kg/injection, schedule: Q01DX010 (ip), vehicle: saline): 90 % of control
- T/C (dose: 10.0 mg/kg/injection, schedule: Q01DX Z (ip), vehicle: carboxymethylcellulose (CMC)): 90 % of control

Structure (SMILES): Cn1cnc([N+](=O)[O-])c1Sc1nc(N)nc2nc[nH]c12
- T/C (dose: 0.25 mg/kg/injection, schedule: Q01DX Z (ip), vehicle: carboxymethylcellulose (CMC)): 90 % of control
- T/C (dose: 0.5 mg/kg/injection, schedule: Q01DX Z (ip), vehicle: carboxymethylcellulose (CMC)): 110 % of control
- T/C (dose: 1.0 mg/kg/injection, schedule: Q01DX Z (ip), vehicle: carboxymethylcellulose (CMC)): 111 % of control
- T/C (dose: 2.0 mg/kg/injection, schedule: Q01DX Z (ip), vehicle: carboxymethylcellulose (CMC)): 110 % of control
- T/C (dose: 8.0 mg/kg/injection, schedule: Q01DX Z (ip), vehicle: carboxymethylcellulose (CMC)): 86 % of control

Structure (SMILES): CO[C@@H]1[C@@H](OC2OC(C)C(OC3CC(C)(O)C(OC(=O)CC(C)C)C(C)O3)C(N(C)C)C2O)[C@@H](CC=O)C[C@@H](C)C(=O)/C=C/C2O[C@H]2C[C@@H](C)OC(=O)C[C@H]1OC(C)=O (some centres undefined)
- T/C [2]: 111 % of control and 120 % of control
- T/C [3]: 111 % of control and 115 % of control
- T/C (dose: 300.0 mg/kg/injection, schedule: Q01DX010 (ip), vehicle: saline): 122 % of control

Structure (SMILES): O=C(Nc1ccc(C2=NCCN2)cc1)c1cccc(C(=O)Nc2ccc(C3=NCCN3)cc2)c1
- T/C (dose: 2.35 mg/kg/injection, schedule: Q01DX Z (ip), vehicle: water): 106 % of control
- T/C (dose: 4.7 mg/kg/injection, schedule: Q01DX Z (ip), vehicle: water): 96 % of control
- T/C (dose: 9.4 mg/kg/injection, schedule: Q01DX Z (ip), vehicle: carboxymethylcellulose (CMC)): 152 % of control
- T/C [5]: 300 % of control and 333 % of control
- T/C (dose: 18.8 mg/kg/injection, schedule: Q01DX Z (ip), vehicle: carboxymethylcellulose (CMC)): 175 % of control
- T/C [6]: 300 % of control and 333 % of control
- T/C (dose: 37.5 mg/kg/injection, schedule: Q01DX Z (ip), vehicle: carboxymethylcellulose (CMC)): 206 % of control
- T/C [7]: 294 % of control and 300 % of control
- T/C (dose: 75.0 mg/kg/injection, schedule: Q01DX Z (ip), vehicle: carboxymethylcellulose (CMC)): 209 % of control
- T/C (dose: 128.0 mg/kg/injection, schedule: Q01DX010 (ip), vehicle: saline): 200 % of control
- T/C (dose: 150.0 mg/kg/injection, schedule: Q01DX Z (ip), vehicle: water): 100 % of control

Structure (SMILES): C[C@H](N)C(=O)N[C@@H]1[C@H]2C(=C(O)C[C@@H](O)[C@@H]2O)C(=O)O[C@@H]1C
- T/C (dose: 93.8 mg/kg/injection, schedule: Q01DX Z (ip), vehicle: saline): 124 % of control
- T/C (dose: 187.5 mg/kg/injection, schedule: Q01DX Z (ip), vehicle: saline): 150 % of control
- T/C (dose: 250.0 mg/kg/injection, schedule: Q01DX Z (ip), vehicle: saline): 161 % of control
- T/C (dose: 375.0 mg/kg/injection, schedule: Q01DX Z (ip), vehicle: saline): 175 % of control
- T/C (dose: 500.0 mg/kg/injection, schedule: Q01DX Z (ip), vehicle: saline): 153 % of control
- T/C (dose: 1000.0 mg/kg/injection, schedule: Q01DX Z (ip), vehicle: saline): 119 % of control

Structure (SMILES): CC(CCC(C)OS(C)(=O)=O)OS(C)(=O)=O (centres undefined)
- T/C [4]: 95 % of control
- T/C (dose: 2.5 mg/kg/injection, schedule: Q01DX Z (ip), vehicle: carboxymethylcellulose (CMC)): 111 % of control
- T/C (dose: 4.0 mg/kg/injection, schedule: Q01DX010 (ip), vehicle: saline): 100 % of control
- T/C [8]: 105 % of control
- T/C [5]: 115 % of control and 105 % of control
- T/C [6]: 116 % of control
- T/C [7]: 88 % of control

Structure (SMILES): c1ccc(CNc2ncnc3[nH]ncc23)cc1
- T/C (dose: 0.98 mg/kg/injection, schedule: Q01DX Z (ip), vehicle: carboxymethylcellulose (CMC)): 93 % of control
- T/C (dose: 1.95 mg/kg/injection, schedule: Q01DX Z (ip), vehicle: carboxymethylcellulose (CMC)): 94 % of control
- T/C [1]: 93 % of control
- T/C (dose: 7.8 mg/kg/injection, schedule: Q01DX Z (ip), vehicle: carboxymethylcellulose (CMC)): 112 % of control
- T/C [8]: 111 % of control
- T/C [5]: 111 % of control and 116 % of control
- T/C [6]: 111 % of control and 122 % of control
- T/C [7]: 111 % of control

Structure (SMILES): CN(C)CC(=O)c1ccc(O)c(O)c1
- T/C (dose: 16.0 mg/kg/injection, schedule: Q01DX Z (ip), vehicle: saline): 114 % of control
- T/C (dose: 31.0 mg/kg/injection, schedule: Q01DX Z (ip), vehicle: saline): 112 % of control
- T/C (dose: 62.0 mg/kg/injection, schedule: Q01DX Z (ip), vehicle: saline): 118 % of control
- T/C (dose: 125.0 mg/kg/injection, schedule: Q01DX Z (ip), vehicle: saline): 115 % of control

Structure (SMILES): CN(C)c1ccc(/C=C\c2ccnc3ccccc23)cc1
- T/C (dose: 0.4 mg/kg/injection, schedule: Q01DX Z (ip), vehicle: water): 87 % of control
- T/C (dose: 0.8 mg/kg/injection, schedule: Q01DX Z (ip), vehicle: water): 99 % of control
- T/C (dose: 1.6 mg/kg/injection, schedule: Q01DX Z (ip), vehicle: water): 108 % of control and 122 % of control
- T/C (dose: 3.1 mg/kg/injection, schedule: Q01DX Z (ip), vehicle: water): 99 % of control and 105 % of control
- T/C (dose: 6.25 mg/kg/injection, schedule: Q01DX Z (ip), vehicle: water): 90 % of control and 94 % of control
- T/C (dose: 6.3 mg/kg/injection, schedule: Q01DX Z (ip), vehicle: water): 118 % of control and 120 % of control
- T/C (dose: 12.5 mg/kg/injection, schedule: Q01DX Z (ip), vehicle: water): 112 % of control and 94 % of control and 105 % of control
- T/C (dose: 25.0 mg/kg/injection, schedule: Q01DX Z (ip), vehicle: water): 118 % of control and 88 % of control and 90 % of control

Structure (SMILES): CC(=O)NC1=C(N2CC2)C(=O)C(NC(C)=O)=C(N2CC2)C1=O
- T/C (dose: 250.0 micrograms/kg/injection, schedule: Q01DX010 (ip), vehicle: saline): 188 % of control and 210 % of control
- T/C (dose: 500.0 micrograms/kg/injection, schedule: Q01DX010 (ip), vehicle: saline): 255 % of control and 270 % of control
- T/C (dose: 1000.0 micrograms/kg/injection, schedule: Q01DX010 (ip), vehicle: saline): 115 % of control

Structure (SMILES): Nc1ncnc2c1ccn2C1OC(CO)C(O)C1O (centres undefined)
- T/C (dose: 0.04 mg/kg/injection, schedule: Q01DX Z (ip), vehicle: carboxymethylcellulose (CMC)): 98 % of control
- T/C (dose: 0.08 mg/kg/injection, schedule: Q01DX Z (ip), vehicle: carboxymethylcellulose (CMC)): 94 % of control
- T/C (dose: 0.16 mg/kg/injection, schedule: Q01DX Z (ip), vehicle: carboxymethylcellulose (CMC)): 101 % of control
- T/C (dose: 0.31 mg/kg/injection, schedule: Q01DX Z (ip), vehicle: carboxymethylcellulose (CMC)): 110 % of control and 112 % of control
- T/C (dose: 0.63 mg/kg/injection, schedule: Q01DX Z (ip), vehicle: carboxymethylcellulose (CMC)): 108 % of control
- T/C [4]: 88 % of control

Structure (SMILES): S=P(N1CC1)(N1CC1)N1CC1
- T/C (dose: 0.37 mg/kg/injection, schedule: Q01DX Z (ip), vehicle: saline): 98 % of control
- T/C (dose: 0.75 mg/kg/injection, schedule: Q01DX Z (ip), vehicle: saline): 96 % of control
- T/C (dose: 1.5 mg/kg/injection, schedule: Q01DX Z (ip), vehicle: saline): 109 % of control
